In US20230140216A1, “COMBINATION THERAPY FOR TREATING MPS1” (GAIN THERAPEUTICS SA, priority 2020, published 2023):

What was measured:
[1] = molecular target: T1, Recombinant human α-L-iduronidase protein (Homo sapiens, UniProt P35475); assay: Differential scanning fluorimetry (DSF) thermal stabilization; type: binding; settings: synthetized Examples 38-94; ΔTm class;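 also: Classes count stabilization of α-L-iduronidase despite the GALC label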
T1 construct: purchased R&D
T1 sequence (P35475 28-653): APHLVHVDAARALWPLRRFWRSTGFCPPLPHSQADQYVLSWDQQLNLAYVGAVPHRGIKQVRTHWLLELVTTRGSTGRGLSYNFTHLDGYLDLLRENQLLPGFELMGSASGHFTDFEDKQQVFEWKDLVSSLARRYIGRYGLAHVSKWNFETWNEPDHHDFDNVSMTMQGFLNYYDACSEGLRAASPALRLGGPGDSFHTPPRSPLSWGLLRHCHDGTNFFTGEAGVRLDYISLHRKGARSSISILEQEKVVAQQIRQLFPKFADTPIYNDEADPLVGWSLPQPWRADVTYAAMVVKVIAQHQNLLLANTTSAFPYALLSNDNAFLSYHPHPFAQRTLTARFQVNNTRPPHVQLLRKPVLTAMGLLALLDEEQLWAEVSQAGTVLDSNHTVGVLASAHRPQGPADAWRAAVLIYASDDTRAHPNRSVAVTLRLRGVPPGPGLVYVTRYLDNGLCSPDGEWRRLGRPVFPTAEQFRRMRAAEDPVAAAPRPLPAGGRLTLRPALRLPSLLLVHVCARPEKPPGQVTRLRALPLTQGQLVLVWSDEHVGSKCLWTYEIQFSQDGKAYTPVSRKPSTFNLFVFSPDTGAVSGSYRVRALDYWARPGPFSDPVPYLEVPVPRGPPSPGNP
Outline: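 Purified recombinant human α-L-iduronidase (final 0.75 µM) in 100 mM Hepes, 20 mM MgCl2, pH 7 with SYPRO Orange was heated with compounds (final 1% DMSO). Thermal denaturation was followed by probe fluorescence during a temperature ramp, and stabilization expressed as ΔTm, binned into four categories (A–D).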

[2] = molecular target: T2, ALDURAZYME (laronidase, IDUA) (Homo sapiens, UniProt P35475); assay: Denaturation prevention assay with ALDURAZYME; type: biochemical; settings: 30 µM compound, pH 7, 37° C.
T2 construct: purchased ALDURAZYME®
T2 sequence (P35475 26-653 limits assumed): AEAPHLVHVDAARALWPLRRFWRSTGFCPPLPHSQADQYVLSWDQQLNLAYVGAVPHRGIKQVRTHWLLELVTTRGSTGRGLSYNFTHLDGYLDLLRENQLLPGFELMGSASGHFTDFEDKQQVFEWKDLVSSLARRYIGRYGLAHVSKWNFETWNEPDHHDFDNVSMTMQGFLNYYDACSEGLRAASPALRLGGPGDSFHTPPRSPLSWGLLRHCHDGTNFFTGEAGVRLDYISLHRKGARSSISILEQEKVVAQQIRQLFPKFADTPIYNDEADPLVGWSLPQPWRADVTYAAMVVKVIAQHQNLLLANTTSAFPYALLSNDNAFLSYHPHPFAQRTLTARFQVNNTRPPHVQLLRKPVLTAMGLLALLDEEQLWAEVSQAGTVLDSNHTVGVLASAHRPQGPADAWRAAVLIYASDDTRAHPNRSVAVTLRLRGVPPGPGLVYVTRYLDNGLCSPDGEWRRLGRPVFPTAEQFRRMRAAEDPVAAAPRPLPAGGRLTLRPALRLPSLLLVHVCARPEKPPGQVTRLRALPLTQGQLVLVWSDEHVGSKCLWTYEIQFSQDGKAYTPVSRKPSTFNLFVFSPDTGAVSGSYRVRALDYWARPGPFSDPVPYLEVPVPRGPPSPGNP
Experimental: (§1) Briefly, recombinant human α-L-iduronidase protein (obtained in the Institute of Biotechnology and Biomedicine in the UAB, Bellaterra, Spain) was combined at a final concentration of 1 µM with 5X of SYPRO Orange and 30 µM of the corresponding compound in a final reaction volume of 25 µL in 100 mM Hepes 20 mM MgCl2 pH 7 buffer. Reactions were incubated at 37° C. and SYPRO Orange fluorescence intensity was monitored at the indicated time points using Glomax® Discover Microplate Reader from Promega (Madison, WI, USA).
Compounds of Examples 8, 39, 40, 54, and 72 were also tested as described above, except that ALDURAZYME® was used instead of the recombinant human α-L-iduronidase protein (obtained in the Institute of Biotechnology and Biomedicine in the UAB, Bellaterra, Spain).

[3] = molecular target: T3, Recombinant human α-L-iduronidase protein (Homo sapiens, UniProt P35475); assay: Denaturation prevention assay in neutral pH buffer; type: biochemical; settings: 500 µM reference compound, pH 7, 37° C.
T3 construct: Ala26-Pro653 with a C-terminal 10_His tag; 10xHis (C); host or cells: HEK293f (stated in b1366 for the UAB protein)
T3 sequence (P35475 26-653): T2 sequence (P35475 26-653 limits assumed)
Experimental: The capacity of Compounds of the Disclosure to stabilize α-L-iduronidase in neutral pH buffer was assessed using the denaturation prevention assay.
as §1
The compound referred to as Compound A throughout this specification is the compound of Example 8 described above. […] (T=37° C.).

SMILES | DSF Activity range [1] | prevention of IDUA denaturation [2] | prevention of pH-induced IDUA denaturation [3]
CN(CC(=O)N1CCc2ccccc21)Cc1nc2cc(F)ccc2c(=O)[nH]1 [Example 72, 7-fluoro-2-(((2-(indolin-1-yl)-2-oxoethyl)(methyl)amino)methyl)quinazolin-4(3H)-one] | B (ΔTm GALC between 0.5 and 1 is shown as B) | prevent IDUA denaturation | –
O=C[C@H](O)[C@@H](O)[C@H](O)[C@@H](O)C(=O)O [L-iduronic acid, reference compound] | – | – | minimal effect
